Test results: US11773129B2, “Methods of preventing or treating atherosclerosis with inhibitors of specific isoenzymes of human neuraminidase” (THE GOVERNORS OF THE UNIVERSITY OF ALBERTA, priority 2017, dated 2023)
“And” between values parts separate entries of the source, which are not always exact repeats. Identical values can stand only once. “Also recorded” adds a separate entry of the source. Like-named read-outs stand apart in the source and are kept apart here.

Tests used:
NEU4 = target: T1, NEU4 (Homo sapiens, UniProt Q8WWR8); experiment: IC50 inhibition assay using 4MU-NANA as the substrate, NEU4; assay type: biochemical; design: GST; made in house; host or cells: E. coli; settings: 4MU-NANA as the substrate; read-out: IC50 NEU4
T1 sequence (Q8WWR8 1-484): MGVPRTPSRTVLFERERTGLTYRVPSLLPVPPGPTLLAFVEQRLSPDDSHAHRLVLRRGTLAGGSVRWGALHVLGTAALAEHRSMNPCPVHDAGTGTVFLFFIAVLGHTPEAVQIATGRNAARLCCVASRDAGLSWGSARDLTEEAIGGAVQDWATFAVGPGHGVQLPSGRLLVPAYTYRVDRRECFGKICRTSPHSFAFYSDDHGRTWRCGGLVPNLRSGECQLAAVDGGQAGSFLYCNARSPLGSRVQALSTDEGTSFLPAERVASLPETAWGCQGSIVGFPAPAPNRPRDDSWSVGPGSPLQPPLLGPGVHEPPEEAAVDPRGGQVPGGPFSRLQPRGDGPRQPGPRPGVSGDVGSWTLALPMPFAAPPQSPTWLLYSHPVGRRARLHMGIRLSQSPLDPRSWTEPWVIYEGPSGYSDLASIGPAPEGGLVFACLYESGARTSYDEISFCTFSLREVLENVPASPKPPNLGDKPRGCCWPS

[1] = tested on: atherosclerotic lesions in ApoE KO mice; experiment: Atherosclerotic lesion size in aortic root of ApoE KO mice (Red Oil O); settings: ApoE KO female mice, ip
Neu1 [2] = target: T2, Neu1 (Mus musculus, UniProt O35657); experiment: Histochemical assay of neuraminidase activity (X-Neu5Ac) in kidney tissues of treated mice; assay type: in vivo; settings: ip 30 mg/kg, X-Neu5Ac staining
T2 construct: from tissue; host or cells: mouse kidney sections (C57Bl6 / ApoE KO mice treated in vivo)
Description: Five μm-thick sections were cut from OCT-embedded frozen mouse tissues using a CM3050 S Microtome (Leica). The slices were incubated with 0.2 mM sialidase substrate […]-4-chloroindol-3-yl 5-acetamido-3,5-dideoxy-α-d-glycero-d-galacto-2-nonulopyranosidonic acid (X-Neu5Ac, Sigma) and Fast Red™ Violet LB Salt (Sigma), at pH 4.7 for 1 h. Then the sections were rinsed in PBS, mounted on glass slides using Vectashield™ mounting medium and scanned using Axioscan™ slide scanner (Zeiss).
The two injections were performed 24 hours apart. 17 hours after the second injection, the kidney and spleen were collected. Untreated C57B16 mice (n=2), Neu1 KO (n=2) and Neu3/4 DKO mice (n=2) were used as positive and negative controls for these compounds.
Histochemical Staining of Sialidase Activity in Tissues: Sialidase activity in was analysed in situ using the histochemical substrate X-Neu5Ac: 5-bromo-4-chloroindol-3-yl-alpha-D-N-acetylneuraminic acid and Fast Red Violet B. X-Neu5Ac is hydrolyzed by neuraminidases to release a halogenated product undergoing rapid aerobic oxidation to form the dark blue dye. Conjugate with Fast Red Violet B was used for fluorescence detection.

NEU1 [3] = target: T3, NEU1 (Homo sapiens, UniProt Q99519); experiment: IC50 inhibition assay using 4MU-NANA as the substrate, NEU1; assay type: biochemical
T3 construct: made in house; host or cells: HEK293 (lentiviral transduction), crude lysate
Description: Two weeks after transduction cells were harvested and a crude lysate showing ˜200 nmol/h mg of sialidase activity used in experiments.
Assays were performed with duplicates for each point and IC50 was obtained by plotting the data with Graphpad™ Prism 5.0.

NEU1, NEU2, NEU3, NEU4 [4] = experiment: Isoenzyme specificity/selectivity from 4MU-NANA IC50 across the four human neuraminidases; assay type: biochemical; settings: for Target: isoenzyme(s) the compound is specific for, dual (bispecific) when ratio of IC50 is about 3 or less
NEU3 [5] = target: T4, NEU3 (Homo sapiens, UniProt Q9UQ49); experiment: Inhibition of GM3 cleavage, NEU3
T4 sequence (Q9UQ49 1-428): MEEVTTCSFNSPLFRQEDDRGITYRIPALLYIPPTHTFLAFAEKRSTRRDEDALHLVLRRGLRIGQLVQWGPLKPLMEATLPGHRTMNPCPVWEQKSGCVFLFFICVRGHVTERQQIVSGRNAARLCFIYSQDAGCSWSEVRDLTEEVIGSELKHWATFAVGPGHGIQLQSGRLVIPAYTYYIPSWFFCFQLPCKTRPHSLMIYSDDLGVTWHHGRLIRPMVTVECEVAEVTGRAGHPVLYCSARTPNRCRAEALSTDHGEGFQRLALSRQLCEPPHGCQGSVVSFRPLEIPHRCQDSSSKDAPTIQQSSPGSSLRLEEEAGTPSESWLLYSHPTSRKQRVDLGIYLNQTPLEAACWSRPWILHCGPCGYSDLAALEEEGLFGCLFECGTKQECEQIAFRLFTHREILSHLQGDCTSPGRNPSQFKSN

NEU3 [6] = target: T4, NEU3; experiment: Ki determination (4MU-NANA), NEU3
NEU3 [7] = target: T4, NEU3; experiment: IC50 inhibition assay using 4MU-NANA as the substrate, NEU3; assay type: biochemical; design: MBP (N); made in house; host or cells: E. coli
NEU1, NEU2, NEU3, NEU4 [8] = experiment: Isoenzyme specificity/selectivity from 4MU-NANA IC50 across the four human neuraminidases; assay type: biochemical; settings: 4MU-NANA IC50 compared between isoenzymes or with DANA
[9] = 4MU-NANA as the substrate, read-out: IC50 NEU1
[10] = 4MU-NANA as the substrate, read-out: IC50 NEU3

Row | SMILES | IC50 (NEU4) | IC50 (NEU1 [3]; [9]) | Target (NEU1, NEU2, NEU3, NEU4 [4]) | IC50 (NEU3 [7]; [10]) | also measured
1 | CCCCC(=O)NCC(O)C(O)C1OC(C(=O)O)=CC(O)[C@H]1NC(C)=O (stereo partly drawn) [compound 50, C9-BA-DANA] | 220 ± 50 µM | – | – | – | atherosclerotic lesion size, % of those in untreated ApoE mice ([1]; 2-week treatment, sacrificed at 16 weeks): 25%; size of atherosclerotic lesions / fatty streaks in the aortic root ([1]; 2 weeks): Reduced size of fatty streaks; also recorded: significantly reduced the size of atherosclerotic lesions; size of atherosclerotic lesions / fatty streaks in the aortic root ([1]; 4 weeks): Reduced size of fatty streaks; also recorded: significantly reduced the size of atherosclerotic lesions; Neu1 activity in tissues (Neu1 [2]): blocks Neu1 activity in kidney tissues; also recorded: almost complete inhibition of NEU1 in the tissues; changes in the mice weight or behaviour (2-week ip treatment): did not result in any changes in the mice weight or behaviour; changes associated with toxicity (bleeding, leukocyte infiltration, cytoplasmic vacuolisation) (4 weeks ip treatment): did not see specific changes known to be associated with toxicity; changes in the mice weight or behaviour (4 weeks ip treatment): did not result in any changes in the mice weight or behaviour
2 | CCCCC(=O)N[C@@H]1C(O)C=C(C(=O)O)OC1C(O)C(O)CO (stereo partly drawn) [compound 31] | 110 ± 20 µM | 0.99 ± 0.07 µM | NEU1 | – | size of atherosclerotic lesions / fatty streaks in the aortic root ([1]; 4 weeks): Reduced size of fatty streaks; also recorded: significantly reduced the size of atherosclerotic lesions; IC50 (NEU1 [3]; target isoenzyme NEU1, 4MU-NANA substrate, read-out: IC50 [μM] NEU1): 0.99 µM; changes associated with toxicity (bleeding, leukocyte infiltration, cytoplasmic vacuolisation) (4 weeks ip treatment): did not see specific changes known to be associated with toxicity; changes in the mice weight or behaviour (4 weeks ip treatment): did not result in any changes in the mice weight or behaviour
3 | CC(=O)N[C@@H]1C(NC(=N)N)C=C(C(=O)O)OC1C(O)C(O)Cn1cc(-c2ccc(-c3ccccc3)cc2)nn1 (stereo partly drawn) [8b] | – | > 500 µM | – | < 1 µM and 0.58 µM | size of atherosclerotic lesions / fatty streaks in the aortic root ([1]; 4 weeks): Reduced size of fatty streaks; also recorded: significantly reduced the size of atherosclerotic lesions; IC50 (NEU3 [5]): 3.8 µM; Ki (NEU3 [6]; Ki NEU3, 4MU-NANA): 0.28 ± 0.04 µM; Ki (NEU3 [6]; NEU3 Ki [μM], 4MU-NANA substrate): 0.36 ± 0.04 µM; changes associated with toxicity (bleeding, leukocyte infiltration, cytoplasmic vacuolisation) (4 weeks ip treatment): did not see specific changes known to be associated with toxicity; changes in the mice weight or behaviour (4 weeks ip treatment): did not result in any changes in the mice weight or behaviour; IC50 (NEU3 [7]; target isoenzyme NEU3, 4MU-NANA substrate, read-out: IC50 [μM] NEU3): 0.6 µM
4 | CC(=O)N[C@H]1[C@H]([C@H](O)[C@H](O)Cn2cc(-c3ccc(C(=O)O)cc3)nn2)OC(C(=O)O)=C[C@@H]1N [compound 15] | > 500 µM | > 500 µM | – | > 500 µM | relative potency (NEU1, NEU2, NEU3, NEU4 [8]): decreased potency
5 | CN(C)c1ccc(-c2cn(CC(=O)N[C@@H]3C(O)C=C(C(=O)O)OC3C(O)C(O)CO)nn2)cc1 (stereo partly drawn) [compound 47, 5-(2-(4-(4-(dimethylamino)phenyl-1H-1,2,3-triazol-1-yl)acetamido))-2,3,5-trideoxy-D-glycero-D-galacto-2-nonulopyranosonic acid] | 36 ± 5 µM | 110 ± 10 µM | NEU1/ NEU2/ NEU3/ NEU4 | 46 ± 7 µM | –
6 | CC(=O)N[C@H]1[C@H]([C@H](O)[C@H](O)Cn2cc(-c3ccc(C(=O)O)cc3)nn2)OC(C(=O)O)=C[C@@H]1NC(=O)NCCC(=O)O [compound 18] | 66 ± 16 µM | > 500 µM | NEU4 | > 500 µM | –
7 | COc1ccc(-c2cn(C[C@@H](O)[C@@H](O)[C@@H]3OC(C(=O)O)=C[C@H](O)[C@H]3NC(C)=O)nn2)cc1 [7e, 5-Acetamido-(4-methoxyphenyl)-2,6-anhydro-3,5-dideoxy-b-glycero-D-galacto-non-2-enonic acid] | 2.6 ± 0.3 µM | 47 ± 6 µM | NEU3/ NEU4 | 5.9 ± 0.4 µM | –
8 | O=C(O)C1=C[C@H](O)[C@@H](NC(=O)C2CC2)[C@H]([C@H](O)[C@H](O)CO)O1 [compound 37, 5-Cyclopropanecarboxamido-2,6-anhydro-3,5-dideoxy-D-glycero-D-galacto-non-2-enonic acid] | 150 ± 40 µM | 6.9 ± 0.4 µM | NEU1 | 170 ± 40 µM | –
9 | CCC(=O)N[C@H]1[C@H]([C@H](O)[C@H](O)CO)OC(C(=O)O)=C[C@@H]1O [compound 29, 5-Propionamido-2,6-anhydro-3,5-dideoxy-D-glycero-D-galacto-non-2-enonic acid] | 87 ± 18 µM | 18 ± 1 µM | NEU1 | 60 ± 7 µM | –
10 | O=C(Cn1cc(-c2ccc(C(F)(F)F)cc2)nn1)N[C@@H]1C(O)C=C(C(=O)O)OC1C(O)C(O)CO (stereo partly drawn) [compound 41] | 300 ± 60 µM | > 500 µM | NEU2 | > 500 µM | –
11 | CC(=O)N[C@H]1[C@H]([C@H](O)[C@H](O)Cn2cc(-c3ccc(C(=O)O)cc3)nn2)OC(C(=O)O)=C[C@@H]1N=[N+]=[N-] [compound 13] | 400 ± 70 µM | > 500 µM | NEU3 | 20 ± 6 µM | relative potency (NEU1, NEU2, NEU3, NEU4 [8]): decreased potency; Selectivity (NEU1, NEU2, NEU3, NEU4 [4]; from 4MU-NANA IC50, for the isoenzyme(s) in column Target): 20
12 | CCCCC(=O)NC[C@@H](O)[C@@H](O)[C@@H]1OC(C(=O)O)=C[C@H](O)[C@H]1NC(=O)CC [compound 65, 5-Propionamido-9-pentanamido-2,6-anhydro-3,5-dideoxy-D-glycero-D-galacto-non-2-enonic acid] | 190 ± 70 µM | 1.6 ± 0.2 µM | NEU1 | > 500 µM | –
13 | CCCCCC(=O)N[C@H]1[C@H]([C@H](O)[C@H](O)CNC(=O)CCC)OC(C(=O)O)=C[C@@H]1O [compound 70, 5-Hexanamido-9-butanamido-2,6-anhydro-3,5-dideoxy-D-glycero-D-galacto-non-2-enonic acid] | > 500 µM | 1.2 ± 0.1 µM | NEU1 | > 500 µM | –
14 | COc1ccc(-c2cn(CC(=O)N[C@@H]3C(O)C=C(C(=O)O)OC3C(O)C(O)CO)nn2)cc1 (stereo partly drawn) [compound 44] | 87 ± 14 µM | > 500 µM | NEU2 | > 500 µM | –
15 | CCCCC(=O)NCC(O)C(O)C1OC(C(=O)O)=CC(O)[C@H]1NC(=O)CCCC (stereo partly drawn) [compound 57, 5-Pentanamido-9-pentanamido-2,6-anhydro-3,5-dideoxy-D-glycero-D-galacto-non-2-enonic acid] | > 500 µM | 1.5 ± 0.2 µM | NEU1 | > 500 µM | –
16 | O=C(O)C1=C[C@H](O)[C@@H](NC(=O)C2CCC2)[C@H]([C@H](O)[C@H](O)CO)O1 [compound 38, 5-Cyclobutanecarboxamido-2,6-anhydro-3,5-dideoxy-D-glycero-D-galacto-non-2-enonic acid] | 81 ± 15 µM | 12 ± 2 µM | NEU1 | 100 ± 20 µM | –
